Experiment in all cases: Kinase inhibitor specificity profiling (Reaction Biology Corporation)
Holding throughout (format): biochemical
Holding throughout (design): % Enzyme Activity (relative to DMSO controls): concentration or dose not given beside the values

The target of experiment [1] is T1, panel of 370 protein kinases (Homo sapiens, UniProt O60285).
T1 construct: purchased Reaction Biology Corporation (assay service)
Particulars: kinase ARK5/NUAK1.

Experiment [2] concerns the target T2, panel of 370 protein kinases (Homo sapiens, UniProt O75116).
T2 construct: purchased Reaction Biology Corporation (assay service)
Particulars: 2 h, kinase ROCK2; read-out: % Enzyme Activity (relative to DMSO controls).

The target of experiment [3] is T3, panel of 370 protein kinases (Homo sapiens, UniProt O75460).
T3 construct: purchased Reaction Biology Corporation (assay service)
The note with it: 2 h, kinase ERN1/IRE1; read-out: % Enzyme Activity (relative to DMSO controls).

Experiment [4] concerns the target T4, panel of 370 protein kinases (Homo sapiens, UniProt O95382).
T4 construct: purchased Reaction Biology Corporation (assay service)
Particulars: 2 h, kinase MEKK6; read-out: % Enzyme Activity (relative to DMSO controls).

The target in experiment [5] is T5, panel of 370 protein kinases (Homo sapiens, UniProt P08069).
T5 construct: purchased Reaction Biology Corporation (assay service)
Particulars: 2 h, kinase IGF1R; read-out: % Enzyme Activity (relative to DMSO controls).

In experiment [6] the target is T6, panel of 370 protein kinases (Homo sapiens, UniProt P15056).
T6 construct: purchased Reaction Biology Corporation (assay service)
The note with it: 2 h, kinase BRAF; read-out: % Enzyme Activity (relative to DMSO controls).

For experiment [7], the target named is T7, panel of 370 protein kinases (Homo sapiens, UniProt P15735).
T7 construct: purchased Reaction Biology Corporation (assay service)
The note with it: 2 h, kinase PHKg2; read-out: % Enzyme Activity (relative to DMSO controls).

Experiment [8] has as its target T8, panel of 370 protein kinases (Homo sapiens, UniProt P23443).
T8 construct: purchased Reaction Biology Corporation (assay service)
Particulars: 2 h, kinase p70S6K/RPS6KB1; read-out: % Enzyme Activity (relative to DMSO controls).

Experiment [9] concerns the target T9, panel of 370 protein kinases (Homo sapiens, UniProt P52333).
T9 construct: purchased Reaction Biology Corporation (assay service)
Particulars: 2 h, kinase JAK3; read-out: % Enzyme Activity (relative to DMSO controls).

The target of experiment [10] is T10, panel of 370 protein kinases (Homo sapiens, UniProt Q02779).
T10 construct: purchased Reaction Biology Corporation (assay service)
Particulars: 2 h, kinase MLK2/MAP3K10; read-out: % Enzyme Activity (relative to DMSO controls).

The target of experiment [11] is T11, panel of 370 protein kinases (Homo sapiens, UniProt Q08345).
T11 construct: purchased Reaction Biology Corporation (assay service)
The note with it: 2 h, kinase DDR1; read-out: % Enzyme Activity (relative to DMSO controls).

Experiment [12] concerns the target T12, panel of 370 protein kinases (Homo sapiens, UniProt Q12852).
T12 construct: purchased Reaction Biology Corporation (assay service)
Particulars: kinase DLK/MAP3K12.

Experiment [13] addresses T13, panel of 370 protein kinases (Homo sapiens, UniProt Q13153).
T13 construct: purchased Reaction Biology Corporation (assay service)
Particulars: 2 h, kinase PAK1; read-out: % Enzyme Activity (relative to DMSO controls).

The target in experiment [14] is T14, panel of 370 protein kinases (Homo sapiens, UniProt Q15746).
T14 construct: purchased Reaction Biology Corporation (assay service)
Particulars: 2 h, kinase MLCK/MYLK; read-out: % Enzyme Activity (relative to DMSO controls).

In experiment [15] the target is T15, panel of 370 protein kinases (Homo sapiens, UniProt Q16513).
T15 construct: purchased Reaction Biology Corporation (assay service)
The note with it: 2 h, kinase PKN2/PRK2; read-out: % Enzyme Activity (relative to DMSO controls).

In experiment [16] the target is T16, panel of 370 protein kinases (Homo sapiens, UniProt Q16584).
T16 construct: purchased Reaction Biology Corporation (assay service)
The note with it: kinase MLK3/MAP3K11.

Experiment [17] has as its target T17, panel of 370 protein kinases (Homo sapiens, UniProt Q8IW41).
T17 construct: purchased Reaction Biology Corporation (assay service)
Particulars: 2 h, kinase MAPKAPK5/PRAK; read-out: % Enzyme Activity (relative to DMSO controls).

The target of experiment [18] is T18, panel of 370 protein kinases (Homo sapiens, UniProt Q9H4A3).
T18 construct: purchased Reaction Biology Corporation (assay service)
The note with it: kinase WNK1.

Experiment [19] concerns the target T19, panel of 370 protein kinases (Homo sapiens, UniProt Q9UF33).
T19 construct: purchased Reaction Biology Corporation (assay service)
The note with it: 2 h, kinase EPHA6; read-out: % Enzyme Activity (relative to DMSO controls).

Experiment [20] addresses T20, panel of 370 protein kinases (Homo sapiens, UniProt Q9UHD2).
T20 construct: purchased Reaction Biology Corporation (assay service)
The note with it: 2 h, kinase TBK1; read-out: % Enzyme Activity (relative to DMSO controls).

For experiment [21], the target named is T21, panel of 370 protein kinases (Homo sapiens, UniProt Q9Y4K4).
T21 construct: purchased Reaction Biology Corporation (assay service)
The note with it: 2 h, kinase KHS/MAP4K5; read-out: % Enzyme Activity (relative to DMSO controls).

Several values for one entry are separate records, joined by “and”; a condition that tells them apart may be missing. Equal entries are not always repeated.

T1 sequence (O60285 whole entry): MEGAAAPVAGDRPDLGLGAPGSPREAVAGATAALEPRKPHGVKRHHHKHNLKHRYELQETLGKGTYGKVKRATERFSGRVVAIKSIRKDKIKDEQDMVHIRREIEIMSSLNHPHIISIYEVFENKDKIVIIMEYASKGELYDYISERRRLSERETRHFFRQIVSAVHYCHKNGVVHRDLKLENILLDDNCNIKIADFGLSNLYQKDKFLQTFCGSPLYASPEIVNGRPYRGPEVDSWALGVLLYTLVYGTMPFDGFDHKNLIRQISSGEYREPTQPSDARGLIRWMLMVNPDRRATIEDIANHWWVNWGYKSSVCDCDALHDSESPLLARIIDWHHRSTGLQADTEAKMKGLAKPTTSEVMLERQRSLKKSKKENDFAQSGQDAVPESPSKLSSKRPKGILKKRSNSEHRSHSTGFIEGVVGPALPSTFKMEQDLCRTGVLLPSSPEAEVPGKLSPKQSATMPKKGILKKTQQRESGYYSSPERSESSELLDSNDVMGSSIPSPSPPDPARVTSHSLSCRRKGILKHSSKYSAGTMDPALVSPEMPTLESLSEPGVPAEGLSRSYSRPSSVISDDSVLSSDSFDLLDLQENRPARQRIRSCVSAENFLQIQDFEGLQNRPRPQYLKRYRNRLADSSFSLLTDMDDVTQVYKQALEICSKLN
T12 sequence (Q12852 whole entry): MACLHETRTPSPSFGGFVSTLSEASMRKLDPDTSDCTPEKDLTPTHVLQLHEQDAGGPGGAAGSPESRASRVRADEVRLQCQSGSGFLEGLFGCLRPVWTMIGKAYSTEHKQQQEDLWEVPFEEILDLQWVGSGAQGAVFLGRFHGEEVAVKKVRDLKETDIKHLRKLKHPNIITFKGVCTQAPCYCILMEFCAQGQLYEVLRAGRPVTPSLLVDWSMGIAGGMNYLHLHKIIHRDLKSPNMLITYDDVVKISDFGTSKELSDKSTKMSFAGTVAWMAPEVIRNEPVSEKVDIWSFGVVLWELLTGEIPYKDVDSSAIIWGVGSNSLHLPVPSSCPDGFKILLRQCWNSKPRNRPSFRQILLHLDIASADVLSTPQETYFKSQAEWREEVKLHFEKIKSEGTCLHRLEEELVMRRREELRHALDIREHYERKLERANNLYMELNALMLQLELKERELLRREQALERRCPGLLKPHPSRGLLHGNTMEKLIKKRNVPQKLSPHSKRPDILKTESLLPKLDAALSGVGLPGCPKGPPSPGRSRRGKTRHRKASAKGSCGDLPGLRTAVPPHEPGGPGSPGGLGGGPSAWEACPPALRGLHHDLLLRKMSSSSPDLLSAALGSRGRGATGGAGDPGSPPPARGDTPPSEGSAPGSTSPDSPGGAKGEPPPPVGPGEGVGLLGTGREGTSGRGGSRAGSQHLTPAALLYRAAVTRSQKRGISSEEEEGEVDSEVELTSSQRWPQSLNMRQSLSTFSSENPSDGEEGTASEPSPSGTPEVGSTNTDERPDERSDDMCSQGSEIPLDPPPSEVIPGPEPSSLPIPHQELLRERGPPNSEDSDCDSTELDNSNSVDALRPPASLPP
T18 sequence (Q9H4A3 whole entry): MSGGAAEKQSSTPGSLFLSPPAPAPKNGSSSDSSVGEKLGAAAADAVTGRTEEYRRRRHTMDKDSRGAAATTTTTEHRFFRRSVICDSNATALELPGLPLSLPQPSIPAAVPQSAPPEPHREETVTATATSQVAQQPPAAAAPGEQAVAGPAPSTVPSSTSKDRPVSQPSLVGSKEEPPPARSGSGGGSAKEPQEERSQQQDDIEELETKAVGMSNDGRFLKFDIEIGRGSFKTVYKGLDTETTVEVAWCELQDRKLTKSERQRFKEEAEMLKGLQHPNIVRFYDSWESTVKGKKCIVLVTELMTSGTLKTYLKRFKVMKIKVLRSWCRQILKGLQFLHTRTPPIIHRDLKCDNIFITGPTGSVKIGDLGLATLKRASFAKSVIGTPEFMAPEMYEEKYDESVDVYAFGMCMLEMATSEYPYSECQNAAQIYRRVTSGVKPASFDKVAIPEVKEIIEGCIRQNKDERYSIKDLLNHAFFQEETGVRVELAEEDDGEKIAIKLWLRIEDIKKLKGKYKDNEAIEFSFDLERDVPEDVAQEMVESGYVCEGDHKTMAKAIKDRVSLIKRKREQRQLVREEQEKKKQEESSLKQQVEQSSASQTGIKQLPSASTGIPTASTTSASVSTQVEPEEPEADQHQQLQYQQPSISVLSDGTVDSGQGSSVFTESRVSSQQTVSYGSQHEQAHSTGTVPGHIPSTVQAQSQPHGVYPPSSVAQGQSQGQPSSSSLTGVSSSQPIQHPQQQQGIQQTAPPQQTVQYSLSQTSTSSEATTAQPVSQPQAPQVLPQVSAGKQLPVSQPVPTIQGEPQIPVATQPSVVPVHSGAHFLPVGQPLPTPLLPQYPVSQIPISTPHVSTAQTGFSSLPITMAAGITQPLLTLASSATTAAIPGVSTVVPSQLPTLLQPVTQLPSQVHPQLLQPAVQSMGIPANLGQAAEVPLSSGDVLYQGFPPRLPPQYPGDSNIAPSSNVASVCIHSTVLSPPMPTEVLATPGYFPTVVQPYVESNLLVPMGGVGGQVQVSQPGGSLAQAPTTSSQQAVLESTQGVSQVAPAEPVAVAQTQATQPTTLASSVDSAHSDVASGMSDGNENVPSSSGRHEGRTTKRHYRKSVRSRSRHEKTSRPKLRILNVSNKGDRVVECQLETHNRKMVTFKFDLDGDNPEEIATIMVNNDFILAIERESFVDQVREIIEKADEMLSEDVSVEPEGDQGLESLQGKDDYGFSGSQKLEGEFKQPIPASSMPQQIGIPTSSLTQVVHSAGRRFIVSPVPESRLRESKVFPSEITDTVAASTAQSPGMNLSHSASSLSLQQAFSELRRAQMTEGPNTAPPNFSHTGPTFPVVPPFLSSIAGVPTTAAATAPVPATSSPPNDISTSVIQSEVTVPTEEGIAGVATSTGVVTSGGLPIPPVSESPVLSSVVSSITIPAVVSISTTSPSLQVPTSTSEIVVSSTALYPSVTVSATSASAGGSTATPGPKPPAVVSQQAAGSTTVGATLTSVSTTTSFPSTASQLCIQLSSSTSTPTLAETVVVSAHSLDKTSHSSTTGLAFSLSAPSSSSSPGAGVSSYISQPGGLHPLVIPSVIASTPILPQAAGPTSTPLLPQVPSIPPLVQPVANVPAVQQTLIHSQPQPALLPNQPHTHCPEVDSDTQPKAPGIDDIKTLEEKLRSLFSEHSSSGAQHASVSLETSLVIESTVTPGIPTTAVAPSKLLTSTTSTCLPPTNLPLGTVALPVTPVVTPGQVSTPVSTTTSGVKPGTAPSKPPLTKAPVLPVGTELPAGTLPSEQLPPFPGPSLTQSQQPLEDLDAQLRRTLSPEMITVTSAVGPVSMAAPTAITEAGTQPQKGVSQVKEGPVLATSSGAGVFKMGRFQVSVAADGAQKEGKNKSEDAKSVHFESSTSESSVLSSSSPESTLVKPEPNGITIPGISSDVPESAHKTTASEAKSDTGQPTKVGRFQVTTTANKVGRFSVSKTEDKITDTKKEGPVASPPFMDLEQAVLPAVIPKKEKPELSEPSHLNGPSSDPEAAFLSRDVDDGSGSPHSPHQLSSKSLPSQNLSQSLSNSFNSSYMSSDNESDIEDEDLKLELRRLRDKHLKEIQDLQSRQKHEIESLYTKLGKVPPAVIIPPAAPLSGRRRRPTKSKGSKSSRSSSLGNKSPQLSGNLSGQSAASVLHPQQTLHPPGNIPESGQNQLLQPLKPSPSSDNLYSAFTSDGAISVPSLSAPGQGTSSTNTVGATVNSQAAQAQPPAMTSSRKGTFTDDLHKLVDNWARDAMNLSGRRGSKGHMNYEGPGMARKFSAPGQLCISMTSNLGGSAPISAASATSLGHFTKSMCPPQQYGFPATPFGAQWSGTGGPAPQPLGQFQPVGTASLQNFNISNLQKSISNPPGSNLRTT
T16 sequence (Q16584 whole entry): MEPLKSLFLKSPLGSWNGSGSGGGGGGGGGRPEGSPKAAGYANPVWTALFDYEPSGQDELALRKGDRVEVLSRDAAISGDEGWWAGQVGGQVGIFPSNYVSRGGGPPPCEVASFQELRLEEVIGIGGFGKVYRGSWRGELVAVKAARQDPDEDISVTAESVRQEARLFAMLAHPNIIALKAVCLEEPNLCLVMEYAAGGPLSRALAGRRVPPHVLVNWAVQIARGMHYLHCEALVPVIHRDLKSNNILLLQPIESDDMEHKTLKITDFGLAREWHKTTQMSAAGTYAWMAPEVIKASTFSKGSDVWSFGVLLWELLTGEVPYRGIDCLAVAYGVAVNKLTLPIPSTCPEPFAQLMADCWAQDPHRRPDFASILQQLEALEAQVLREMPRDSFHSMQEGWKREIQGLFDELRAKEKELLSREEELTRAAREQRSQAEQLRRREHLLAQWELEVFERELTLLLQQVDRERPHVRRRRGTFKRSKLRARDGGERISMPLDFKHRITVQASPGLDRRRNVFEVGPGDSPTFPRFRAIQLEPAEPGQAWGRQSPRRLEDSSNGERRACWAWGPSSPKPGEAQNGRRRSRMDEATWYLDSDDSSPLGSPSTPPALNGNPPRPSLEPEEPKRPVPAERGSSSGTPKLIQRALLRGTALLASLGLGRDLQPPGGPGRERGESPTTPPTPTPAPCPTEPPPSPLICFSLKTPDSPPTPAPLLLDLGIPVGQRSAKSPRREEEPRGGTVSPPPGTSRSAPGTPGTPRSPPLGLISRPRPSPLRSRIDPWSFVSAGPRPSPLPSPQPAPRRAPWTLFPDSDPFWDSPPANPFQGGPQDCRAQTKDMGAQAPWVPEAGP

As for `CCN1CCN(C(=O)c2ccc(Nc3ncc(F)c(-c4ccc5nc(N(C)C)sc5c4)n3)nc2)CC1` [YK-2-69], the “% Enzyme Activity (relative to DMSO controls)” value was 87.08% and 86.46% in experiment [1]; 98.52% and 93.92% in experiment [12]; 97.08% and 87.23% in experiment [16]; 116.91% and 108.19% in [18]. The remaining activity at 1 µM stood at 93.2% in [2]; 89.3% in [3]; 111% in experiment [4]; 102% in experiment [5]; 95.2% in [6]; 97.9% in experiment [7]. The remaining activity at 1 µM in experiment [8] was 99.7%; in experiment [9], 111%; in experiment [10] it was 81.7%; in [11] it was 86.2%; in [13], 89.2%; in [14], 97.5%. Also, the remaining activity at 1 µM in experiment [15] came out at 88.4%; in experiment [17], 98.5%; in experiment [19], 104%; in experiment [20], 93.1%; in experiment [21] it was 101%.

Values taken from paper PMC9133015 (Nature Communications, 2022).
